From article PMC6015222, “Targeting Phosphopeptide Recognition by the Human BRCA1 Tandem BRCT Domain to Interrupt BRCA1-Dependent Signaling” (Cell Chemical Biology, 2018)
“Also recorded” adds a separate entry of the source.

Tests used:
[1] = target: T1, ECT2 BRCT (Homo sapiens, UniProt Q9H8V3); experiment: Competitive MST selectivity: ECT2; format: binding
T1 construct: ECT2 BRCT residues 22-326; 6x His (N); made in house; host or cells: E. coli C41(DE3)
T1 sequence (Q9H8V3 22-326 isoform Q9H8V3-4): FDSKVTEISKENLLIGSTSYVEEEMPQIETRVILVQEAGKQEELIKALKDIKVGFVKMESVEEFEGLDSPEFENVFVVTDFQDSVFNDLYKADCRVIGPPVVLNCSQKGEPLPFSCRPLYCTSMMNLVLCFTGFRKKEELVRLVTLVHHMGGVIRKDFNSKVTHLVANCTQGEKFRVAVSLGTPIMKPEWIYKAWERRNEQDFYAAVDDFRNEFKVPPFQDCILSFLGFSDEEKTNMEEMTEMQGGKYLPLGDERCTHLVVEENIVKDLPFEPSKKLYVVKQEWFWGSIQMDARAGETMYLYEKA
Description: (§1) Protein domains used in the assay were labeled with NT-647-NHS fluorescent dye using the Monolith NT™ Protein Labeling Kit (NanoTemper Technologies). Assays were carried out in 20mM Tris buffer, pH 7.4, with 200mM NaCl, 0.05% Tween-20 and 2mM DTT. For the direct binding assay, 10μl of labeled protein at a final concentration of 20nM was mixed with 10μl of test compound and incubated on ice for 10 min. For the competitive assay, 10μl of labeled protein at a final concentration of 20nM was mixed with 2μM cognate peptide substrate at the EC80 concentration determined by prior titration using a 16-point serial dilution by direct-binding MST. For both assays, samples prepared as above were centrifuged at 15000 rpm at 4°C for 10 min and 4μl of the supernatant was loaded into premium glass capillaries (NanoTemper Technologies). MST analysis was performed at MST power of 40% and LED power of 80%, at 22°C temperature using a Monolith NT.115 (NanoTemper Technologies). An initial “Capillary Scan” was performed to scan for fluorescence across the length of the capillary tray to determine the exact position of each capillary before the MST measurement was started. Test compounds were assayed at 16 different concentrations by serial dilution, and data were analysed using NanoTemper analysis software. Kd values were determined using “T-jump + Thermophoresis” settings. […]

[2] = target: T2, BRCA1 tBRCT (Homo sapiens, UniProt P38398); experiment: Competitive MST: inhibition of BACH1 phosphopeptide binding to BRCA1 tBRCT; details: MST, BACH1 phosphopeptide vs BRCA1 tBRCT; mean ± SD of three experiments; NB, no binding
T2 construct: BRCA1 tBRCT residues 1646-1859; made in house; host or cells: E. coli BL21(DE3)
T2 sequence (P38398 1646-1859): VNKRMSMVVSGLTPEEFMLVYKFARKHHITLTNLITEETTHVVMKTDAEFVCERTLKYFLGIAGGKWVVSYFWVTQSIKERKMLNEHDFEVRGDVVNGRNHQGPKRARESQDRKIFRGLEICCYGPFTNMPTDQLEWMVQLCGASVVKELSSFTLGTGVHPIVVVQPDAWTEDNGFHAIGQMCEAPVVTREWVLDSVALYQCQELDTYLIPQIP
Description: Protein domains used in the assay were labeled with NT-647-NHS fluorescent dye using the Monolith NT™ Protein Labeling Kit (NanoTemper Technologies). Assays were carried out in 20mM Tris buffer, pH 7.4, with 200mM NaCl, 0.05% Tween-20 and 2mM DTT. For the direct binding assay, 10μl of labeled protein at a final concentration of 20nM was mixed with 10μl of test compound and incubated on ice for 10 min. For the competitive assay, 10μl of labeled protein at a final concentration of 20nM was mixed with 2μM cognate peptide substrate at the EC80 concentration determined by prior titration using a 16-point serial dilution by direct-binding MST. For both assays, samples prepared as above were centrifuged at 15000 rpm at 4°C for 10 min and 4μl of the supernatant was loaded into premium glass capillaries (NanoTemper Technologies). MST analysis was performed at MST power of 40% and LED power of 80%, at 22°C temperature using a Monolith NT.115 (NanoTemper Technologies). An initial “Capillary Scan” was performed to scan for fluorescence across the length of the capillary tray to determine the exact position of each capillary before the MST measurement was started. Test compounds were assayed at 16 different concentrations by serial dilution, and data were analysed using NanoTemper analysis software. Kd values were determined using “T-jump + Thermophoresis” settings. The change in thermophoresis between different experimental conditions was expressed as the change in the normalized fluorescence (ΔFnorm), which is defined as Fhot/Fcold (F-values correspond to average fluorescence values between defined areas in the curve under steady-state conditions under control (Fcold) or experimental (Fhot) conditions. Titration of the non-fluorescent ligand causes a gradual change in thermophoresis, which is plotted as ΔFnorm to yield a binding curve, which was then fitted to derive binding constants.

[3] = system: BRCA1 foci; experiment: Radiation-induced nuclear BRCA1 foci, high-content imaging, HEK293 cells; format: cell-based, human; details: 100 μM added 6 hr after 16 Gy, staining 18 hr after irradiation
Description: HEK293 cells stably harboring plasmids for Tet-inducible expression of tBRCT domains were seeded at 30,000 cells/well on Matrigel-coated 96-well plates, and treated as indicated. Cells were fixed in 2.5% PFA, for 20’ at RT and incubated in 1x PBS with 10% FBS plus 0.5% TritonX-100 for 1 h for blocking and permeabilization. Primary antibody staining was performed at the indicated dilutions in PBST-BSA buffer (0.7mg/ml BSA, 0.05% Tween-20 in 1XPBS) for 1h at RT. Cells were then extensively washed in PBST-BSA buffer and stained with goat-anti-mouse Alexa 488 secondary antibody (Invitrogen), at 1:1000 dilution along with 2.5μg/ml DAPI for nuclear staining. […] Images were acquired on a high-content imaging platform (Cellomics ArrayScan VTI HCS Reader (Thermo Fisher Scientific)) using a 40x objective. On average ∼800 fields from 6-well replicates, containing a total of ∼10-20K cells were imaged per treatment group and quantified using image analysis software (in-house algorithms using MatLab and commercially available HCS studio 2.0 from Thermo Fisher Scientific). […] Cut-off values for foci number per cell specifying the maximal difference between control and irradiated samples were determined to calculate the percentage of cells positive for radiation-induced foci. […]

[4] = target: T3, MCPH1 tBRCT 2/3 (Homo sapiens, UniProt Q8NEM0); experiment: Competitive MST selectivity: MCPH1 tBRCT; format: binding
T3 construct: MCPH1 tBRCT 2/3 residues 640-835; 6x His (N); made in house; host or cells: E. coli BL21(DE3)
T3 sequence (Q8NEM0 640-835): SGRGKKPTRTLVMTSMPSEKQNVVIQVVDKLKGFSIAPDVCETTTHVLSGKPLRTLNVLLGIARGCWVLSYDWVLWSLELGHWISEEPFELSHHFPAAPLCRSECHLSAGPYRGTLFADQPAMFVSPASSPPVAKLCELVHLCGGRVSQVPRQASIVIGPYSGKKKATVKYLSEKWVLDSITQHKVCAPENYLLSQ
Description: as §1

binding to fluorescently labeled ECT2 tBRCT domain [1]: does not detectably bind | IC50 [2]: 74 nM | binding to fluorescently labeled MCPH1 tBRCT domain [4]: does not detectably bind
SMILES: O=C(c1ccc2nc(-c3ccccc3)[nH]c2c1)N1CCN(Cc2ccccc2F)CC1 [Bractoppin, (4-(2-fluorobenzyl)piperazin-1-yl) (2-phenyl-1H-benzo[d]imidazol-6-yl) methanone]
effect on formation of radiation-induced BRCA1 foci [3]: inhibits the formation of radiation-induced BRCA1 foci; also recorded: selectively inhibits damage-induced BRCA1 foci formation
